Test results taken from patent US8501792B2, “Treating cancer with desthiazolyl ritonavir” (priority 2008, dated 2013).
Read-outs that look alike come from different tables or passages of the source.

Tests used:
Hsp90 = assay: 70 kDa Hsp90 fragment after treatment; type: cell-based; conditions: data not shown
[1] = test system: MDA-MB-231 (triple negative); assay: MTT proliferation assay, MDA-MB-231; type: cell-based; conditions: Homo sapiens
Protocol: (§1) Cells (n=2000/well) were seeded in 96 well plates with drug or vehicle (DMSO) on D1 and after 48 h the cell number was determined by MTT assay.

[2] = test system: MDA-MB-231 (triple negative); assay: Annexin V-FITC/PI apoptosis flow cytometry, MDA-MB-231; type: cell-based
Protocol: (§2) Induction of apoptosis was studied in a MCF7 breast cancer cell line. Apoptotic cells were detected using an Annexin V-FITC/PI apoptosis detection kit (Oncagene, Boston, Mass.). After plating at 5×10^5 in a 100-mm plate, the cells were grown for 48 hours in complete medium in presence of M1, ritonavir, or vehicle (DMSO). The culture and drug exposure conditions for the apoptosis assays were done across a range of 5 to 60 μmol/L M1 and ritonavir. Cells were harvested by trypsin treatment, washed with complete medium to neutralize the trypsin, and stained with PI and Annexin V-FITC. A total of 1×10^4 events were analyzed per assay by FACScan analysis using CellQuest software (Becton Dickinson). Replicate assays were done to confirm the results.
(§3) A similar study was performed using T47D (ER+), MDA-MB-231 (triple negative) and SKBR3 (ER−/Her2+) cell lines were performed as above.

MCF7 (ER+) = assay: MTT proliferation assay, MCF7; type: cell-based; conditions: Homo sapiens
Protocol: as §1

T47D (ER+) [3] = assay: MTT proliferation assay, T47D; type: cell-based; conditions: Homo sapiens
Protocol: as §1

T47D (ER+) [4] = assay: Annexin V-FITC/PI apoptosis flow cytometry, T47D; type: cell-based
Protocol: as §2, §3

[5] = test system: non-transformed human breast epithelial line MCF10A; assay: MTT proliferation assay, MCF10A; type: cell-based; conditions: MCF-10A, 48 h
Protocol: M1 inhibition of proliferation of MCF7, T47D and MDA-MB-231 cell lines was studied. Cells (n=2000/well) were seeded in 96 well plates with drug or vehicle (DMSO) on D1 and after 48 h the cell number was determined by MTT assay. Each assay was performed with 8 measurements for each data point (See FIG. 1, wherein graph A corresponds to MCF7, graph B corresponds to T47D, and graph C corresponds to MDA-MB-231).
M1 inhibition of proliferation of MCF7 (ER+), T47D (ER+), MDA-MB-231 (triple negative), SKBR3 (ER−/Her2+), and the non-transformed mammary line MCF10A were studied. Cells (n=2000/well) were seeded in 96 well plates with drug or vehicle (DMSO) on D1 and after 48 h the cell number was determined by MTT assay.

MDA-MB-231 xenograft = assay: Murine breast cancer xenograft; type: in vivo, female nude mice (nu-/nu-)
Protocol: Six-8 weeks old female nude mice (nu^−/nu^−) (Charles River Laboratories International, Inc., MA) were injected into a right mammary fat pad with 1×10^6 log-phase MDA-MB-231. Mice were monitored bi-weekly for weight and tumor growth. When tumors reached a volume of approximately 30-40 mm^3 (calculated according to the formula: volume (mm^3)=(length)(width)^2/2), mice were randomized into three groups (each group n=10). One group of mice was injected daily i.p. with ritonavir (20 mg/Kg in 100 μl of ethanol-Tween 80), the second with M1 (20 mg/Kg in 100 μl of ethanol-Tween 80), and the third with vehicle only (100 μl of ethanol-Tween 80). […] Mice were weighted and their tumors were measured twice a week for the entire duration of the treatment (42 days).
One hour after the last drug/vehicle injection plasma, tumors, lungs, liver, tongue, and skin were collected from each mouse. Plasma was stored at −80° C.; half of the tissues were treated to prepare paraffin blocks, and half were frozen in liquid nitrogen and stored at −80° C.

[6] = test system: MCF7 breast cancer cell line; assay: Annexin V-FITC/PI apoptosis flow cytometry, MCF7; type: cell-based; conditions: for early apoptotic cells: preliminary flow cytometry apoptosis studies; for UR % Late Apoptosis / LR % Early Apoptosis: 48 hours; for fraction of apoptotic cells (early, lower right quadrant): at the ritonavir IC50 (30 μM), FIG. 2
Protocol: Induction of apoptosis can be determined using the Annexin V-FITC/PI apoptosis detection kit (Oncagene, Boston, Mass.). For example, after plating at 5×10^5 in a 100-mm plate, cancer cells can be grown for 48 hours in complete medium in presence of a drug, including a compound or formula 1, and a control, such as vehicle (DMSO). The culture and drug exposure conditions for the apoptosis assays can be done across a range of 5 to 60 μmol/L drug. Cells can be harvested by trypsin treatment, washed with complete medium to neutralize the trypsin, and stained with PI and Annexin V-FITC. The events can then be analyzed using FACScan analysis and CellQuest software (Becton Dickinson). See Example 2.
as §2

T47D = assay: Western blot protein depletion, T47D (Example 4); type: cell-based
Protocol: (§4) Breast cancer cell lines MDA-MB-231, T47D and SKBR3 were used to study depletion of Hsp90 by M1 and ritonavir. Cells were incubated for 48 hours with 1) ritonavir (R) at its IC50 (20 μM for T47D and 40 μM for MDA-MB-231); 2) M1 at ritonavir's IC50; or DMSO (control). Cell extracts were made according to the method of Srirangam et al., Clin Cancer Res. 2006 Mar. 15; 12(6):1883-96. Briefly, nearly confluent cell monolayers were treated with drug or vehicle (DMSO) for 24 or 48 h. Cells were washed with PBS on ice and scraped in a RIPA buffer containing protease inhibitors including MG-132 and phosphatase inhibitors. The cell lysate protein content was determined by μBCA and equal amounts of protein were loaded per lane. Gel electrophoresis by SDS PAGE was performed with equal protein loading per lane (usually 30 μg) and the separated proteins were transferred to 0.45 μm nitrocellulose filters. The transfer was verified by Ponceau stain of the nitrocellulose filters. The filters were probed by chemiluminescent blotting and then exposed to X-ray film. The signal from the protein of interest was normalized to the GAPDH signal. Student's t-test was used to determine the significance of differences.

MDA-MB-231 = assay: Western blot protein depletion, MDA-MB-231 (Example 4); type: cell-based
Protocol: as §4

SKBR3 = assay: Western blot protein depletion, SKBR3 (Example 4); type: cell-based
Protocol: as §4

[7] = as quoted in Example 4, read-out: IC50
[8] = Table 1, below the IC50 for both drugs, 45 μM
[9] = Table 3, at the ritonavir IC50, 30 μM
[10] = Table 4, above the IC50 for both drugs, 45 μM
[11] = Example 6, MTT after 48 h, read-out: IC50, proliferation

| SMILES | fraction of apoptotic cells [2] | fraction of apoptotic cells (T47D (ER+) [4]) | IC50 ([5]; Example 1, MTT after 48 h) | IC50 ([5]; Example 6, MTT after 48 h) | early apoptotic cells ([6]; 45 μM) | UR % Late Apoptosis ([6]; Table 1, 45 μM) | LR % Early Apoptosis [6, 8] | LR % Early Apoptosis ([6]; Table 2, at the M1 IC50, 15 μM) | UR % Late Apoptosis ([6]; Table 2, at the M1 IC50, 15 μM) | LR % Early Apoptosis [6, 9] | UR % Late Apoptosis [6, 9] | LR % Early Apoptosis [6, 10] | UR % Late Apoptosis [6, 10] | fraction of apoptotic cells (early, lower right quadrant) [6] | G1/S regulatory protein Cyclin D1 (T47D; P<0.05) | G1/S regulatory protein Cyclin D1 (MDA-MB-231; P<0.05) | G1/S regulatory protein Cyclin D1 (SKBR3) | reducing Hsp90 levels (SKBR3) | further results |
| --- | --- | --- | --- | --- | --- | --- | --- | --- | --- | --- | --- | --- | --- | --- | --- | --- | --- | --- | --- |
| CC(C)c1nc(CN(C)C(=O)N[C@H](C(=O)N[C@@H](Cc2ccccc2)C[C@H](O)[C@H](Cc2ccccc2)NC(=O)OCc2cncs2)C(C)C)cs1 [ritonavir] | 20% | 13% | 35 µM | 31 µM | 14% | 23.0% | 14.12% | 13.83% | 11.16% | 15.11% | 7.95% | 17.10% | 7.30% | 17% | reduced | reduced | only M1 reduced | neither drug reduced | 70 kDa Hsp90 fragment, less abundant than with M1 (Hsp90): 3 -fold; IC50 [1, 7]: 40 µM; IC50 (MCF7 (ER+); MCF7, 48 h, read-out: IC50, proliferation): 28 µM; IC50 (MCF7 (ER+); MCF7, as quoted in Example 2, read-out: IC50): 30 µM; IC50 (T47D (ER+) [3]; 48 h, read-out: IC50, proliferation): 23 µM; IC50 (T47D (ER+) [3]; [7]): 20 µM; effect on MDA-MB-231 xenograft (MDA-MB-231 xenograft; at its MTD (40 mg/Kg)): inhibits; effect on MDA-MB-231 xenograft (MDA-MB-231 xenograft; half its MTD (20 mg/Kg)): ineffective |
| CC(C)c1nc(CN(C)C(=O)NC(C(=O)NC(Cc2ccccc2)CC(O)C(N)Cc2ccccc2)C(C)C)cs1 (stereo not drawn) [M1, desthiazolyl ritonavir] | 40% | 20% | 50 µM | 45 µM | 28% | 34.74% | 27.46% | 9.42% | 10.73% | 39.74% | 20.00% | 31.95% | 21.31% | 32% | reduced | reduced | reduced | neither drug reduced | major 70 kDa Hsp90 fragment (Hsp90): observed; IC50 [1, 11]: 22 µM; IC50 (MCF7 (ER+); MCF7, Example 6, MTT after 48 h, read-out: IC50, proliferation): 15 µM; IC50 (T47D (ER+) [3]; [11]): 10 µM; tumor growth compared to mice treated with only the vehicle (MDA-MB-231 xenograft; 20 mg/Kg daily i.p., 42 days, FIG. 5A): delayed tumor growth; tumor growth compared to ritonavir (MDA-MB-231 xenograft; 20 mg/Kg daily i.p., 42 days, FIG. 5B): statistically significant delay in tumor growth; reduction of the average tumor size (MDA-MB-231 xenograft; at MTD (20 mg/Kg), 42 days of follow-up, P<0.05): 2 -fold; reducing Hsp90 levels (T47D; 48 hours, at ritonavir's IC50 (20 μM)): more potent than ritonavir; reducing ER alpha (T47D; versus ritonavir, P<0.05): more potent; reducing total Akt, phospho-Akt, GSK3beta, c-src, and survivin (T47D; versus ritonavir, P<0.05): more potent; reducing Hsp90 levels (MDA-MB-231; 48 hours, at ritonavir's IC50 (40 μM)): more potent than ritonavir; reducing total Akt, phospho-Akt, GSK3beta, c-src, and survivin (MDA-MB-231; versus ritonavir, P<0.05): more potent; reducing total Akt, phospho-Akt, GSK3beta, c-src, and survivin (SKBR3; versus ritonavir, P<0.05): more potent |
